Experiment [1] relates to female diet-induced obese (DIO) C57BL/6NHsd mice. The experiment can be described thus: Acute and chronic effects after subcutaneous treatment in female diet-induced obese (DIO) mice. In kind it is in vivo, mouse. The note with it: for Body mass compared to the DIO-Vehicle group / Whole body fat mass compared to the DIO-Vehicle group / Plasma insulin concentrations compared to DIO vehicle / Plasma total cholesterol concentrations compared to DIO vehicle / Liver mass on day 28 compared to DIO animals treated with vehicle / Plasma alanine aminotransferase concentration on day 28 compared to DIO vehicle: 30 μg/kg s.c. twice daily; for Body mass compared to the DIO-Vehicle group / Whole body fat mass compared to the DIO-Vehicle group / Body mass change: 28 days; for Body mass compared to the DIO-Vehicle group / Whole body fat mass compared to the DIO-Vehicle group / Plasma insulin concentrations compared to DIO vehicle / Plasma total cholesterol concentrations compared to DIO vehicle / Liver mass on day 28 compared to DIO animals treated with vehicle / Plasma alanine aminotransferase concentration on day 28 compared to DIO vehicle / 24 hour blood glucose profile following first treatment: in words; for Plasma insulin concentrations compared to DIO vehicle / Plasma total cholesterol concentrations compared to DIO vehicle: day 28; for 24 hour blood glucose profile following first treatment: 30 μg/kg s.c., day 1, fed DIO mice, vs DIO control; for Body mass change / Whole body fat mass change / Terminal liver mass (g) / Terminal plasma alanine aminotransferase (U/L) / Terminal plasma insulin (U/L) / Terminal plasma total cholesterol (mmol/L): twice-daily 30 μg/kg s.c.; for Body mass change: mean ± SEM; for Whole body fat mass change: QNMR predose vs day 26, mean ± SEM; for Terminal liver mass (g) / Terminal plasma alanine aminotransferase (U/L) / Terminal plasma insulin (U/L) / Terminal plasma total cholesterol (mmol/L): day 28, mean ± SEM. On the procedure:
Female C57BL/6NHsd mice were ordered group housed from Envigo RMS Inc., shipped group housed and remained group housed with shipped cage mates in shoebox caging with wood chip bedding until day 38 of the predose phase. At the study start mice were between 25-26 weeks old.
Mice were housed under vivarium conditions that included a 12 h light/dark cycle (light phase 04:00 AM-4:00 PM), room temperatures between 23-26° C. and a relative humidity between 30-70%. All animals had free access to water and a high fat diet (TD97366) for 16 weeks prior to pharmacological intervention (dosing phase). Feed was replaced with fresh feed weekly until and for the last time on day 38 of the predose phase. During the subsequent dosing phase, approximately 50% of the remaining feed were removed, replaced with fresh feed, and pellets were mixed evenly once per week.
On predose day 38, obese DIO mice were assigned to treatment groups (n=8) to match mean body masses between all DIO groups. An age-matched group with ad libitum access to a rodent maintenance diet (Teklad Global Diets Rodent 2014, pelleted) was included in the study as a lean control group. In the predosing phase from day 32 through 38, all study animals were treated with vehicle (Phosphate Buffered Saline, PBS, Gibco, without CaCl2 and MgCl2) once daily (s.c. approximately 0.2 mL/mouse).
On day 37 of the predose phase, the test article was diluted with PBS to a concentration of 100 μg/mL and aliquots of this stock solution were stored at approximately ≤−60° C. Stock aliquots were thawed for weekly use and thereafter stored in a refrigerator at approximately 4° C. The injected test article solution was prepared fresh once on each dosing day by diluting stock solution with PBS to achieve the desired concentration.
Mice were treated twice daily with a s.c. injection of PBS-vehicle or the test article for 28 days. The morning dosing was initiated and completed between 06:00 and 07:30 AM and the afternoon dosing between 2:00 and 3:30 PM. On day 28 of the dosing phase only the morning dose was administered. The applied volume was 5 ml/kg and the dose was adjusted to the most recent body mass recording of each individual.
Animals had unlimited access to water and feed during the experiment. On day 1 of the dosing phase approximately 5 μL of blood were collected via tail clips at hour 0, prior to the first s.c. dose of PBS-vehicle or test-article as well as 1, 2, 3, 4, 6, and 24 hours post-dose. Animals received the second s.c. dose of PBS-vehicle or test-article 8 hours after the first dose. The 24 hour blood collection of the blood glucose profile was performed prior to dosing on day 2. Glucose measurements were performed in whole blood and in duplicate or triplicate using Aviva glucometers.
Body mass was measured daily approximately between 06:00-07:30 AM from day 32 through 38 of the predosing phase and throughout the 28 days of the dosing phase. During the dosing phase mice were treated twice daily with either a s.c. injection of PBS-vehicle or test article.
To determine whole body fat mass Quantitative Nuclear Magnetic Resonance (QNMR) measurements were performed on predosing day 37 and on day 26 of the dosing phase. During the dosing phase mice were treated twice daily with either a s.c. injection of PBS-vehicle or test article.
On day 28 blood was collected prior to any other inlife activities for determination of plasma insulin concentrations. Then the morning dose was administered and necropsy was performed 4 hours post-dose. For this purpose animals were anesthetized with isoflurane and blood was collected by orbital bleeding.
On day 28 and 4 hours after the morning dose, blood was collected from mice under isoflurane anesthesia as described above. Then mice were killed and livers were collected and weighed.
Data are depicted as means±SEM. […] A One-Way ANOVA and Tukey Test were used for pairwise multiple comparisons of all groups (n=8/group, deviations from group size are indicated). […]

The target in experiment [2] is T1, human GIP receptor (hGIP-R) (Homo sapiens, UniProt P48546).
T1 construct: expressed in transfected cells; host or cells: HEK-293
T1 sequence (P48546 22-466): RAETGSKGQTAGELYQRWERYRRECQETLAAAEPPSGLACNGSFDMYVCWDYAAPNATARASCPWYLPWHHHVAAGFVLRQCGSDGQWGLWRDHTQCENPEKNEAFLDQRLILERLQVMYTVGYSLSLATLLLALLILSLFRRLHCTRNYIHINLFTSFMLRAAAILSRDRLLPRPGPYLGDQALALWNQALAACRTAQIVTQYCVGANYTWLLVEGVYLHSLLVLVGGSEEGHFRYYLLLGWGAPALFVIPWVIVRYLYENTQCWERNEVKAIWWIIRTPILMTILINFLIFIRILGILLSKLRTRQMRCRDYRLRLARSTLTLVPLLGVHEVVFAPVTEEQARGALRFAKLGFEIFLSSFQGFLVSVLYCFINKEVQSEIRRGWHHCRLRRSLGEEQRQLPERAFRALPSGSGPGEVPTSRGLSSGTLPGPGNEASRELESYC
Kind of experiment: cAMP response (HTRF) of HEK-293 cells stably expressing human GIP receptor. In kind it is cell-based. The note with it: Table 8; cAMP formation. On the procedure:
cAMP content of cells was determined using a kit from Cisbio Corp. (cat. no. 62AM4PEJ) based on HTRF (Homogenous Time Resolved Fluorescence). For preparation, cells were split into T175 culture flasks and grown overnight to near confluency in medium (DMEM/10% FBS). Medium was then removed and cells washed with PBS lacking calcium and magnesium, followed by proteinase treatment with accutase (Sigma-Aldrich cat. no. A6964). Detached cells were washed and resuspended in assay buffer (1×HBSS; 20 mM HEPES, 0.1% BSA, 2 mM IBMX) and cellular density determined. They were then diluted to 400000 cells/ml and 25 μl-aliquots dispensed into the wells of 96-well plates. For measurement, 25 μl of test compound in assay buffer was added to the wells, followed by incubation for 30 minutes at room temperature.
Potencies of peptidic compounds at the GLP-1, glucagon and GIP receptors were determined by exposing cells expressing human glucagon receptor (hGlucagon R), human GIP receptor (hGIP-R) or human GLP-1 receptor (hGLP-1 R) to the listed compounds at increasing concentrations and measuring the formed cAMP as described in Methods.
For orientation: In TR-FRET formats the signal depends on donor and acceptor labels being close together.

pEC50: −log10 of the molar value.

Consider `CCCCCCCCCCCCCCCC(=O)N[C@@H](CCC(=O)N[C@@H](CCC(=O)NCCCC[C@H](NC(=O)[C@H](CC(C)C)NC(=O)[C@H](CCCCN)NC(=O)[C@H](CO)NC(=O)[C@H](CC(C)C)NC(=O)[C@H](CC(=O)O)NC(=O)[C@H](CO)NC(=O)[C@@H](NC(=O)[C@H](Cc1ccccc1)NC(=O)[C@@H](NC(=O)CNC(=O)[C@H](CCC(N)=O)NC(=O)C(C)(C)NC(=O)[C@@H](N)Cc1c[nH]cn1)[C@@H](C)O)[C@@H](C)O)C(=O)N[C@@H](CCC(=O)O)C(=O)N[C@@H](CCCCN)C(=O)N[C@@H](CCC(N)=O)C(=O)N[C@@H](CCCNC(=N)N)C(=O)N[C@@H](CCC(N)=O)C(=O)NC(C)(C)C(=O)N[C@@H](CCC(=O)O)C(=O)N[C@@H](Cc1ccccc1)C(=O)N[C@H](C(=O)N[C@@H](CCC(=O)O)C(=O)N[C@@H](Cc1c[nH]c2ccccc12)C(=O)N[C@@H](CC(C)C)C(=O)N[C@@H](CCCCN)C(=O)N[C@@H](C)C(=O)NCC(=O)NCC(=O)N1CCC[C@H]1C(=O)N1CCC[C@H]1C(=O)N[C@@H](CO)C(=O)NC(C)(C)C(=O)N[C@@H](CCCCN)C(=O)N1CCC[C@H]1C(=O)N1CCC[C@H]1C(=O)N1CCC[C@H]1C(=O)N[C@@H](CCCCN)C(N)=O)[C@@H](C)CC)C(=O)O)C(=O)O` [SEQ ID NO: 6, H-Aib-Q-G-T-F-T-S-D-L-S-K-L-K[gGlu-gGlu-Palm]-E-K-Q-R-Q-Aib-E-F-I-E-W-L-K-A-G-G-P-P-S-Aib-K-P-P-P-K-NH2], for which, in experiment [1], the “Body mass compared to the DIO-Vehicle group” value was “statistically significant decrease in body mass”, the “Whole body fat mass compared to the DIO-Vehicle group” value is “statistically significantly reduction in whole body fat mass”, the “Plasma insulin concentrations compared to DIO vehicle” value is “statistically significant reduction in plasma insulin concentrations” and the “Plasma total cholesterol concentrations compared to DIO vehicle” value was “statistically significant reduction in plasma total cholesterol concentrations”. In experiment [1], the “Liver mass on day 28 compared to DIO animals treated with vehicle” value is given as “statistically significantly lower liver mass”, the “Plasma alanine aminotransferase concentration on day 28 compared to DIO vehicle” value is listed as “statistically significantly lower plasma alanine aminotransferase concentration” and the “24 hour blood glucose profile following first treatment” value is listed as “decrease in blood glucose concentrations below concentrations observed in DIO control mice”. Besides, in experiment [1] (Table 9), the “Body mass change” value is -5.36 ± 0.36 g, the “Whole body fat mass change” value is -4.33 ± 0.42 g, the “Terminal liver mass (g)” value is recorded as “+1.16 ± 0.04 g” and the “Terminal plasma alanine aminotransferase (U/L)” value is reported as “+62.25 ± 9.79 U/L”. Besides, in experiment [1] (Table 9), the “Terminal plasma insulin (U/L)” value was “+31.07 ± 5.26 U/L” and the “Terminal plasma total cholesterol (mmol/L)” value is “+5.11 ± 0.12 mmol/L”. In experiment [2], this compound showed a negative logarithm of the EC50 (pEC50) of 11.10.

In the case of `CCCCCCCCCCCCCCCC(=O)N[C@@H](CCC(=O)N[C@@H](CCC(=O)NCCCC[C@H](NC(=O)[C@H](CC(C)C)NC(=O)[C@H](CCCCN)NC(=O)[C@H](CO)NC(=O)[C@H](CC(C)C)NC(=O)[C@H](CC(=O)O)NC(=O)[C@H](CO)NC(=O)[C@@H](NC(=O)[C@H](Cc1ccccc1)NC(=O)[C@@H](NC(=O)CNC(=O)[C@H](CCC(N)=O)NC(=O)C(C)(C)NC(=O)[C@@H](N)Cc1c[nH]cn1)[C@@H](C)O)[C@@H](C)O)C(=O)N[C@@H](CCC(=O)O)C(=O)N[C@@H](CCC(=O)O)C(=O)N[C@@H](CCC(N)=O)C(=O)N[C@@H](CCCNC(=N)N)C(=O)N[C@@H](CCC(N)=O)C(=O)NC(C)(C)C(=O)N[C@@H](CCC(=O)O)C(=O)N[C@@H](Cc1ccccc1)C(=O)N[C@H](C(=O)N[C@@H](CCC(=O)O)C(=O)N[C@@H](Cc1c[nH]c2ccccc12)C(=O)N[C@@H](CC(C)C)C(=O)N[C@@H](CCCCN)C(=O)N[C@@H](C)C(=O)NCC(=O)NCC(=O)N[C@@H](Cc1c[nH]cn1)C(=O)N1CCC[C@H]1C(=O)N[C@@H](CO)C(=O)NC(C)(C)C(=O)N[C@@H](CCCCN)C(=O)N1CCC[C@H]1C(=O)N1CCC[C@H]1C(=O)N1CCC[C@H]1C(=O)N[C@@H](CCCCN)C(N)=O)[C@@H](C)CC)C(=O)O)C(=O)O` [SEQ ID NO: 8, H-Aib-Q-G-T-F-T-S-D-L-S-K-L-K[gGlu-gGlu-Palm]-E-E-Q-R-Q-Aib-E-F-I-E-W-L-K-A-G-G-H-P-S-Aib-K-P-P-P-K-NH2], in experiment [1], the “Body mass compared to the DIO-Vehicle group” value is listed as “statistically significant decrease in body mass”, the “Whole body fat mass compared to the DIO-Vehicle group” value is “statistically significantly reduction in whole body fat mass”, the “Plasma insulin concentrations compared to DIO vehicle” value is listed as “statistically significant reduction in plasma insulin concentrations” and the “Plasma total cholesterol concentrations compared to DIO vehicle” value is on record as “statistically significant reduction in plasma total cholesterol concentrations”. Besides, in experiment [1], the “Liver mass on day 28 compared to DIO animals treated with vehicle” value is “statistically significantly lower liver mass”, the “Plasma alanine aminotransferase concentration on day 28 compared to DIO vehicle” value is reported as “statistically significantly lower plasma alanine aminotransferase concentration” and the “24 hour blood glucose profile following first treatment” value is listed as “decrease in blood glucose concentrations below concentrations observed in DIO control mice”. Further, in experiment [1] (Table 11), the “Body mass change” value was -8.23 ± 0.62 g, the “Whole body fat mass change” value was -6.65 ± 0.38 g, the “Terminal liver mass (g)” value is on record as “+1.08 ± 0.03 g” and the “Terminal plasma alanine aminotransferase (U/L)” value was “+68.88 ± 15.05 U/L”. In experiment [1] (Table 11), the “Terminal plasma insulin (U/L)” value is on record as “+39.70 ± 4.25 U/L” and the “Terminal plasma total cholesterol (mmol/L)” value is given as “+4.36 ± 0.08 mmol/L”. In experiment [2], this compound had a negative-log EC50 (pEC50) of 11.25.

As a reminder, the pEC50 is the EC50 on a negative log10 scale, so that one unit is a factor of ten. A low value points to a large EC50.

The values above are taken from patent publication US10519211B2, “Compounds as peptidic GLP1/glucagon/GIP receptor agonists” (SANOFI, priority 2016, dated 2019).
